Source: ChEMBL document CHEMBL1201862, “PubChem BioAssay data set” (2004)
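Five compound concentrations were applied to cells in 96-well plates for 48 hours; endpoints were derived by simple linear interpolation of the resulting dose-response curve. Abbreviation: GI50, concentration required for 50% inhibition of growth.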 Active and inactive are the calls of the source. No stated cut-off is given here; in the data, active = GI50 up to about 1.1 µM and inactive = higher.

How the values were obtained:
Test in all cases: NCI tumour cell line growth inhibition, 48 h
[1] = system: OVCAR-5
[2] = system: SW-620
[3] = system: CAKI-1
[4] = system: NCI-H522
[5] = system: EKVX
[6] = system: NCI-H460
[7] = system: M14
[8] = system: HCT-15
[9] = system: SK-MEL-28
[10] = system: OVCAR-3
[11] = system: MDA-MB-231
[12] = system: COLO 205
[13] = system: SK-MEL-2
[14] = system: SN12C
[15] = system: PC-3
[16] = system: UACC-62
[17] = system: MDA-MB-435
[18] = system: UACC-257
[19] = system: SF-268
[20] = system: HOP-62
[21] = system: UO-31
[22] = system: T47D
[23] = system: NCI-H226
[24] = system: SR
[25] = system: Hs-578T
[26] = system: OVCAR-8
[27] = system: LOX IMVI
[28] = system: ACHN
[29] = system: SK-OV-3
[30] = system: MDA-N
[31] = system: 786-0
[32] = system: TK-10
[33] = system: OVCAR-4
[34] = system: HCT-116
[35] = system: MOLT-4
[36] = system: IGROV-1
[37] = system: KM12
[38] = system: K562
[39] = system: SNB-19
[40] = system: SNB-75
[41] = system: U-251
[42] = system: SF-539
[43] = system: RXF 393
[44] = system: HCC 2998
[45] = system: A498
[46] = system: RPMI-8226
[47] = system: CCRF-CEM
[48] = system: NCI/ADR-RES
[49] = system: BT-549
[50] = system: HT-29
[51] = system: HOP-92
[52] = system: DU-145
[53] = system: HL-60
[54] = system: MCF7
[55] = system: SK-MEL-5
[56] = system: Malme-3M
[57] = system: SF-295
[58] = system: NCI-H23
[59] = system: A549

Cc1ccnc2sc3ccccc3c(=O)c12
GI50 [1]: 48.5 µM (inactive) | GI50 [2]: 44.3 µM (inactive) | GI50 [3]: 23.6 µM (inactive) | GI50 [4]: 34.7 µM (inactive) | GI50 [5]: 18 µM (inactive) | GI50 [6]: 24 µM (inactive) | GI50 [7]: 44.9 µM (inactive) | GI50 [8]: 52.2 µM | GI50 [9]: 48.9 µM (inactive) | GI50 [10]: 91.6 µM (inactive) | GI50 [11]: 29.3 µM (inactive) | GI50 [12]: 45.7 µM (inactive) | GI50 [13]: 81.1 µM (inactive) | GI50 [14]: 40.4 µM (inactive) | GI50 [15]: 35.6 µM (inactive) | GI50 [16]: 17.6 µM (inactive) | GI50 [17]: 52.6 µM (inactive) | GI50 [18]: 55.2 µM (inactive) | GI50 [19]: 32.7 µM (inactive) | GI50 [20]: 98.4 µM (inactive) | GI50 [21]: 25.4 µM (inactive) | GI50 [22]: 55.3 µM (inactive) | GI50 [23]: 36.1 µM (inactive) | GI50 [24]: 54.8 µM (inactive) | GI50 [25]: 27.3 µM (inactive) | GI50 [26]: 43.1 µM (inactive) | GI50 [27]: 29.5 µM (inactive) | GI50 [28]: 35.1 µM (inactive) | GI50 [29]: 37.3 µM (inactive) | GI50 [30]: 39.4 µM (inactive) | GI50 [31]: 65 µM (inactive) | GI50 [32]: 23.8 µM (inactive) | GI50 [33]: > 100 µM (inactive) | GI50 [34]: 32 µM (inactive) | GI50 [35]: 26 µM (inactive) | GI50 [36]: 30.7 µM (inactive) | GI50 [37]: 53.7 µM (inactive) | GI50 [38]: 42.8 µM (inactive) | GI50 [39]: 49.8 µM (inactive) | GI50 [40]: 22.4 µM (inactive) | GI50 [41]: 56.8 µM (inactive) | GI50 [42]: 33.4 µM (inactive) | GI50 [43]: 23.9 µM (inactive) | GI50 [44]: 42.3 µM (inactive) | GI50 [45]: 29.8 µM (inactive) | GI50 [46]: 36.7 µM (inactive) | GI50 [47]: 40.9 µM (inactive) | GI50 [48]: 48.5 µM (inactive) | GI50 [49]: 25.9 µM (inactive) | GI50 [50]: 30.3 µM (inactive) | GI50 [51]: 54 µM (inactive) | GI50 [52]: 84.3 µM (inactive) | GI50 [53]: 30 µM (inactive) | GI50 [54]: 38.4 µM (inactive) | GI50 [55]: 24.7 µM (inactive) | GI50 [56]: 51.9 µM (inactive) | GI50 [57]: 50.1 µM (inactive) | GI50 [58]: 59 µM (inactive)

CC(=O)OCC1=C(C(=O)O)N2C(=O)C(NC(=O)CSc3ccncc3)C2SC1 (stereo not drawn)
GI50 [1]: > 100 µM (inactive) | GI50 [2]: > 100 µM (inactive) | GI50 [3]: > 100 µM (inactive) | GI50 [4]: > 100 µM (inactive) | GI50 [59]: > 100 µM (inactive) | GI50 [5]: > 100 µM (inactive) | GI50 [6]: > 100 µM (inactive) | GI50 [7]: > 100 µM (inactive) | GI50 [8]: > 100 µM | GI50 [9]: > 100 µM (inactive) | GI50 [10]: > 100 µM (inactive) | GI50 [11]: > 100 µM (inactive) | GI50 [12]: > 100 µM (inactive) | GI50 [13]: > 100 µM (inactive) | GI50 [14]: > 100 µM (inactive) | GI50 [15]: > 100 µM (inactive) | GI50 [16]: > 100 µM (inactive) | GI50 [17]: > 100 µM (inactive) | GI50 [18]: > 100 µM (inactive) | GI50 [19]: > 100 µM (inactive) | GI50 [20]: > 100 µM (inactive) | GI50 [21]: > 100 µM (inactive) | GI50 [22]: > 100 µM (inactive) | GI50 [23]: > 100 µM (inactive) | GI50 [24]: > 100 µM (inactive) | GI50 [25]: > 100 µM (inactive) | GI50 [26]: > 100 µM (inactive) | GI50 [27]: > 100 µM (inactive) | GI50 [28]: > 100 µM (inactive) | GI50 [29]: > 100 µM (inactive) | GI50 [30]: > 100 µM (inactive) | GI50 [31]: > 100 µM (inactive) | GI50 [34]: > 100 µM (inactive) | GI50 [35]: > 100 µM (inactive) | GI50 [36]: > 100 µM (inactive) | GI50 [37]: > 100 µM (inactive) | GI50 [38]: > 100 µM (inactive) | GI50 [39]: > 100 µM (inactive) | GI50 [40]: > 100 µM (inactive) | GI50 [41]: > 100 µM (inactive) | GI50 [42]: > 100 µM (inactive) | GI50 [43]: > 100 µM (inactive) | GI50 [44]: > 100 µM (inactive) | GI50 [45]: > 100 µM (inactive) | GI50 [46]: > 100 µM (inactive) | GI50 [47]: > 100 µM (inactive) | GI50 [48]: > 100 µM (inactive) | GI50 [49]: > 100 µM (inactive) | GI50 [50]: > 100 µM (inactive) | GI50 [51]: > 100 µM (inactive) | GI50 [52]: > 100 µM (inactive) | GI50 [53]: > 100 µM (inactive) | GI50 [54]: > 100 µM (inactive) | GI50 [55]: > 100 µM (inactive) | GI50 [56]: > 100 µM (inactive) | GI50 [57]: > 100 µM (inactive) | GI50 [58]: > 100 µM (inactive)

Cc1cccc2c(N)c3cccc(C(=O)NCC[N+](C)(C)Cc4c([N+](=O)[O-])ncn4C)c3nc12
GI50 [1]: 23.6 µM (inactive) | GI50 [2]: 18.9 µM (inactive) | GI50 [3]: 2.69 µM (inactive) | GI50 [4]: 12.4 µM (inactive) | GI50 [59]: 3.78 µM (inactive) | GI50 [5]: > 66.1 µM (inactive) | GI50 [7]: 52.4 µM (inactive) | GI50 [8]: 27 µM | GI50 [9]: > 100 µM (inactive) | GI50 [10]: 41.8 µM (inactive) | GI50 [11]: 38.5 µM (inactive) | GI50 [12]: 24.3 µM (inactive) | GI50 [13]: > 80.5 µM (inactive) | GI50 [14]: 6.93 µM (inactive) | GI50 [15]: 36.6 µM (inactive) | GI50 [16]: 33.7 µM (inactive) | GI50 [17]: 52.6 µM (inactive) | GI50 [18]: 49.9 µM (inactive) | GI50 [19]: 28.2 µM (inactive) | GI50 [20]: 10.4 µM (inactive) | GI50 [21]: 16.6 µM (inactive) | GI50 [22]: 67.8 µM (inactive) | GI50 [23]: 29.2 µM (inactive) | GI50 [24]: 23 µM (inactive) | GI50 [25]: 31.2 µM (inactive) | GI50 [26]: 26.3 µM (inactive) | GI50 [27]: 11.4 µM (inactive) | GI50 [28]: 10.8 µM (inactive) | GI50 [29]: 31.6 µM (inactive) | GI50 [30]: 47.1 µM (inactive) | GI50 [31]: 6.5 µM (inactive) | GI50 [32]: 56.2 µM (inactive) | GI50 [33]: > 48.2 µM (inactive) | GI50 [34]: 26.4 µM (inactive) | GI50 [35]: 3.05 µM (inactive) | GI50 [36]: 27.3 µM (inactive) | GI50 [37]: 29 µM (inactive) | GI50 [38]: 11.1 µM (inactive) | GI50 [39]: 25.8 µM (inactive) | GI50 [40]: 27.4 µM (inactive) | GI50 [41]: 29.9 µM (inactive) | GI50 [42]: 11.5 µM (inactive) | GI50 [43]: 48 µM (inactive) | GI50 [44]: 6.73 µM (inactive) | GI50 [45]: 47.6 µM (inactive) | GI50 [46]: 31.4 µM (inactive) | GI50 [47]: 18.9 µM (inactive) | GI50 [48]: > 49.9 µM (inactive) | GI50 [49]: 46.1 µM (inactive) | GI50 [50]: 12.7 µM (inactive) | GI50 [51]: 40.6 µM (inactive) | GI50 [52]: 46.8 µM (inactive) | GI50 [53]: 5.92 µM (inactive) | GI50 [54]: 12.8 µM (inactive) | GI50 [55]: 26.1 µM (inactive) | GI50 [56]: > 43.6 µM (inactive) | GI50 [57]: 25.4 µM (inactive) | GI50 [58]: 17.5 µM (inactive)
